The target of assay [1] is T1, human adenosine A2A receptor (Homo sapiens, UniProt P29274).
T1 construct: expressed in transfected cells; host or cells: HEK293 cells infected with BacMam
As to the kind of experiment: Inhibition binding assay, human adenosine A2A receptor membranes, [3H]ZM241385. The following applies: 1 nM [3H]ZM241385, HEK293-hA2A membranes, 25° C., 1 h; IC50 converted to Ki with Cheng-Prusoff; read-out: A2A pKi (converted). The gist of the method:
(§1)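 Membranes from BacMam-infected HEK293 cells (0.2 μg A2A, 1.4 μg A1) incubated 1 h at 25° C with test compound and 1 nM [3H]ZM241385 (A2A; 50 mM Tris-HCl pH 7.4) or [3H]DPCPX (A1; plus 100 mM NaCl, 10 mM MgCl2). Nonspecific: 1 μM CGS15943 or DPCPX. Filtration, scintillation; IC50 converted to Ki via Cheng-Prusoff.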

Assay [2] has as its target T2, human CB1 receptor (Homo sapiens, UniProt P21554).
T2 construct: expressed in transfected cells; host or cells: CHO cells
The assay is described as follows: CB1 receptor antagonism, agonist-induced cAMP modulation (HTRF) in transfected CHO cells. Type of assay: cell-based. The following applies: read-out: Antag IC50. The procedure: Receptor antagonism: Evaluation of the antagonist activity of compounds at the human CB1 receptor expressed in transfected CHO cells, determined by measuring their effects on agonist-induced cAMP modulation using the HTRF detection method.
Thereafter, the reference agonist CP 55940 and the adenylyl cyclase activator NKH 477 are added at respective final concentrations of 3 nM and 3 μM.
For basal control measurements, CP 55940 is omitted from the wells containing 3 μM AM 281.
Following 20 min incubation at 37° C., the cells are lysed and the fluorescence acceptor (D2-labeled cAMP) and fluorescence donor (anti-cAMP antibody labeled with europium cryptate) are added.
After 60 min at room temperature, the fluorescence transfer is measured at λex=337 nm and λem=620 and 665 nm using a microplate reader (Rubystar, BMG). The cAMP concentration is determined by dividing the signal measured at 665 nm by that measured at 620 nm (ratio).
The standard reference antagonist is AM 281, which is tested in each experiment at several concentrations to generate a concentration-response curve from which its IC50 value is calculated.
Background: TR-FRET usually uses a lanthanide donor and a delayed reading to cut background.

In assay [3] the target is T3, human adenosine A1 receptor (Homo sapiens, UniProt P30542).
T3 construct: expressed in transfected cells; host or cells: HEK293 cells infected with BacMam (the same paragraph also labels the preparation CHO-hA1)
T3 sequence (P30542 1-326): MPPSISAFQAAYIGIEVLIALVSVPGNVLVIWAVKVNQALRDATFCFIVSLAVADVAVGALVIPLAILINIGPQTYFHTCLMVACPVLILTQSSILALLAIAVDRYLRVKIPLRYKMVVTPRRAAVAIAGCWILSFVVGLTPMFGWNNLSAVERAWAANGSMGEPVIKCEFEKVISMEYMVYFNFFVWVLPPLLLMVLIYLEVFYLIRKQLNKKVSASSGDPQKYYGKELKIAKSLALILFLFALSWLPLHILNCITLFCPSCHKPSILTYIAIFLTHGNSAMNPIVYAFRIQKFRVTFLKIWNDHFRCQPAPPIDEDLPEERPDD
The assay is described as follows: Inhibition binding assay, human adenosine A1 receptor membranes, [3H]DPCPX. The following applies: 1 nM [3H]DPCPX, 25° C., 1 h; IC50 converted to Ki with Cheng-Prusoff; read-out: A1 pKi (converted). The method in brief:
as §1

We go through 21 compounds from patent US12528815B2, “5-amino-8-(4-pyridyl)-[1,2,4]triazolo[4,3-c]pyrimidin-3-one compounds for use against cancer” (Nxera Pharma UK Limited, priority 2020, dated 2026).

What is called IC50 is the concentration needed to halve the response being measured.

T1 sequence (P29274 whole entry): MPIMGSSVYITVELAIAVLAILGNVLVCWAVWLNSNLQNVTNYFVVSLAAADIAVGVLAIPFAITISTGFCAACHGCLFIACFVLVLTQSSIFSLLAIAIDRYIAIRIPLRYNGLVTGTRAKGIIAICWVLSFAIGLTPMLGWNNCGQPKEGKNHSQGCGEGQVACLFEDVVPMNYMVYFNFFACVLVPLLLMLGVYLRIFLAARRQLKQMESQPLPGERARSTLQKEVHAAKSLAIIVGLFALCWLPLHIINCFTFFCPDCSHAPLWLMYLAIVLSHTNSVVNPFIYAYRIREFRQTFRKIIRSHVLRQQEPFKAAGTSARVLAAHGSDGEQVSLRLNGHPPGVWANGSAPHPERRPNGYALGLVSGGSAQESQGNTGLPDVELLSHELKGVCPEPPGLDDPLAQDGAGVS
T2 sequence (P21554 whole entry): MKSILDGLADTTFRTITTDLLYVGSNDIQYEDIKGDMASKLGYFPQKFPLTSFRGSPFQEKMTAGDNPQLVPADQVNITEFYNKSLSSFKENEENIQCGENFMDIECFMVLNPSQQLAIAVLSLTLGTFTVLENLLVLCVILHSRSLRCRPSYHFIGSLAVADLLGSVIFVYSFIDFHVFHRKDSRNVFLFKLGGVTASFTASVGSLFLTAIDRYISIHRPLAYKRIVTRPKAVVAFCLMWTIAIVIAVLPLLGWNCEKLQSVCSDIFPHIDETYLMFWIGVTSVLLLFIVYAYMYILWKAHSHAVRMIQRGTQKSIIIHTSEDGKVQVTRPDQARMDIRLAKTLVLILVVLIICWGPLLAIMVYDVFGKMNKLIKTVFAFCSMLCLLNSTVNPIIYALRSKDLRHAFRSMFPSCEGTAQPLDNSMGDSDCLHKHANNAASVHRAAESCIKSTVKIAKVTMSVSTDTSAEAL

`CCN(C)CCn1nc2c(-c3cc(C)nc(C)c3)c(-c3ccccc3)nc(N)n2c1=O` [Example 2-18, 5-amino-8-(2,6-dimethyl-4-pyridyl)-2-[2-[ethyl(methyl)amino]ethyl]-7-phenyl-[1,2,4]triazolo[4,3-c]pyrimidin-3-one]: the Ki in assay [1] was 6.31 nM. Further, the IC50 in assay [2] was over 100000 nM.
For `Cc1cc(-c2c(-c3ccccc3)nc(N)n3c(=O)n(CC(=O)N(C)C)nc23)cc(C)n1` [Example 2-25, 2-[5-amino-8-(2,6-dimethyl-4-pyridyl)-3-oxo-7-phenyl-[1,2,4]triazolo[4,3-c]pyrimidin-2-yl]-N,N-dimethyl-acetamide], in that order: 10 nM and over 100000 nM.
For `Cc1cc(-c2c(-c3nc(C)cs3)nc(N)n3c(=O)n(CCC(F)(F)F)nc23)cc(C)n1` [Example 2-44, 5-amino-8-(2,6-dimethyl-4-pyridyl)-7-(4-methylthiazol-2-yl)-2-(3,3,3-trifluoropropyl)-[1,2,4]triazolo[4,3-c]pyrimidin-3-one], in that order: 20 nM and over 100000 nM.
On to `Cc1cc(-c2c(-c3ccccc3)nc(N)n3c(=O)n(Cc4cccc(F)c4Cl)nc23)cc(C)n1` [Example 1-21, 5-amino-2-[(2-chloro-3-fluoro-phenyl)methyl]-8-(2,6-dimethyl-4-pyridyl)-7-phenyl-[1,2,4]triazolo[4,3-c]pyrimidin-3-one], for which the values for the Ki in assay [3] and in assay [1] were 10 nM and 0.501 nM, respectively.
Take `Cc1cc(-c2c(-c3ccccc3)nc(N)n3c(=O)n(C[C@@H]4CN(C(=O)OC(C)(C)C)CCN4C)nc23)cc(C)n1` [Example 2-83, tert-butyl (S)-3-((5-amino-8-(2,6-dimethylpyridin-4-yl)-3-oxo-7-phenyl-[1,2,4]triazolo[4,3-c]pyrimidin-2(3H)-yl)methyl)-4-methylpiperazine-1-carboxylate]: the Ki was 1000 nM in assay [3] and 10 nM in assay [1].
Regarding `Cc1cc(-c2c(-c3ccccc3)nc(N)n3c(=O)n(C4CCCNC4)nc23)cc(C)n1` (stereo not drawn) [Example 2-55, 5-amino-8-(2,6-dimethyl-4-pyridyl)-7-phenyl-2-(3-piperidyl)-[1,2,4]triazolo[4,3-c]pyrimidin-3-one], the Ki was over 3160 nM in assay [3] and 251 nM in assay [1].
For `Cc1cc(-c2c(-c3ccccc3)nc(N)n3c(=O)n(CCC(=O)N(C)C)nc23)cc(C)n1` [Example 2-23, 3-[5-amino-8-(2,6-dimethyl-4-pyridyl)-3-oxo-7-phenyl-[1,2,4]triazolo[4,3-c]pyrimidin-2-yl]-N,N-dimethyl-propanamide], in that order: 1000 nM and 12.6 nM.
On to `COC(=O)c1ccc(CCn2nc3c(-c4cc(C)nc(C)c4)c(-c4ccccc4)nc(N)n3c2=O)cc1` [Example 1-84, methyl 4-[2-[5-amino-8-(2,6-dimethyl-4-pyridyl)-3-oxo-7-phenyl-[1,2,4]triazolo[4,3-c]pyrimidin-2-yl]ethyl]benzoate], for which the Ki in assay [3] is 794 nM; in assay [1], 31.6 nM.
On the same counts, the results for `Cc1cc(-c2c(-c3ccccc3)nc(N)n3c(=O)n(CC4CCCCO4)nc23)cc(CO)n1` (single isomer, unassigned) [Example 2-91-iso-2, 5-amino-8-[2-(hydroxymethyl)-6-methyl-4-pyridyl]-7-phenyl-2-(tetrahydropyran-2-ylmethyl)-[1,2,4]triazolo[4,3-c]pyrimidin-3-one] are 251 nM and 1.58 nM.
On the same counts, the results for `Cc1cc(-c2c(-c3ccccc3)nc(N)n3c(=O)n(Cc4cccnn4)nc23)cc(CO)n1` [Example 1-56, 5-amino-8-[2-(hydroxymethyl)-6-methyl-4-pyridyl]-7-phenyl-2-(pyridazin-3-ylmethyl)-[1,2,4]triazolo[4,3-c]pyrimidin-3-one] are 200 nM and 3.98 nM.
For `Cc1cc(-c2c(-c3ccccc3)nc(N)n3c(=O)n(Cc4cccnc4-n4cccn4)nc23)cc(C)n1` [Example 1-19, 5-amino-8-(2,6-dimethyl-4-pyridyl)-7-phenyl-2-[(2-pyrazol-1-yl-3-pyridyl)methyl]-[1,2,4]triazolo[4,3-c]pyrimidin-3-one], in that order: 100 nM and 1.26 nM.
`Cc1cc(-c2c(-c3ccccc3)nc(N)n3c(=O)n(Cc4ccc(F)c(=O)n4C)nc23)cc(C)n1` [Example 1-10, 5-amino-8-(2,6-dimethyl-4-pyridyl)-2-[(5-fluoro-1-methyl-6-oxo-2-pyridyl)methyl]-7-phenyl-[1,2,4]triazolo[4,3-c]pyrimidin-3-one]: the Ki was 794 nM in assay [3] and 20 nM in assay [1].
On the same counts, the results for `Cc1cc(-c2c(-c3ccccc3)nc(N)n3c(=O)n(CC(C)C)nc23)cc(C)n1` [Example 2-21, 5-amino-8-(2,6-dimethyl-4-pyridyl)-2-isobutyl-7-phenyl-[1,2,4]triazolo[4,3-c]pyrimidin-3-one] are 1000 nM and 2.51 nM.
On the same counts, the results for `Cc1cc(-c2c(-c3ccccc3)nc(N)n3c(=O)n(CC4CCN(C(=O)OC(C)(C)C)CC4)nc23)cc(C)n1` [Example 2-67, tert-butyl 4-[[5-amino-8-(2,6-dimethyl-4-pyridyl)-3-oxo-7-phenyl-[1,2,4]triazolo[4,3-c]pyrimidin-2-yl]methyl]piperidine-1-carboxylate] are 1000 nM and 6.31 nM.
On the same counts, the results for `COc1ccc(Cn2nc3c(-c4cc(C)nc(C)c4)c(-c4ccccc4)nc(N)n3c2=O)cc1` [Example 1-3, 5-amino-8-(2,6-dimethyl-4-pyridyl)-2-[(4-methoxyphenyl)methyl]-7-phenyl-[1,2,4]triazolo[4,3-c]pyrimidin-3-one] are 25.1 nM and 6.31 nM.
`Cc1cc(-c2c(-c3ccccc3)nc(N)n3c(=O)n(CCOS(C)(=O)=O)nc23)cc(C)n1` [Example 2-9, 2-[5-amino-8-(2,6-dimethyl-4-pyridyl)-3-oxo-7-phenyl-[1,2,4]triazolo[4,3-c]pyrimidin-2-yl]ethyl methanesulfonate]: the Ki in assay [3] is 631 nM; in assay [1], 20 nM.
In the case of `Cc1cc(-c2c(-c3ccccc3)nc(N)n3c(=O)n(CC4CCCOC4)nc23)cc(C)n1` (stereo not drawn) [Example 2-81, 5-amino-8-(2,6-dimethyl-4-pyridyl)-7-phenyl-2-(tetrahydropyran-3-ylmethyl)-[1,2,4]triazolo[4,3-c]pyrimidin-3-one], the Ki in assay [3] was 316 nM; in assay [1] it was 0.501 nM.
On the same counts, the results for `COc1nc(N)n2c(=O)n(CCC(F)(F)F)nc2c1-c1cc(C)nc(C)c1` [Example 3-8, 5-amino-8-(2,6-dimethyl-4-pyridyl)-7-methoxy-2-(3,3,3-trifluoropropyl)-[1,2,4]triazolo[4,3-c]pyrimidin-3-one] are over 3160 nM and 1260 nM.
On the same counts, the results for `Cc1cc(-c2c(-c3ccccc3)nc(N)n3c(=O)n(CCCN4CCCCC4)nc23)cc(C)n1` [Example 2-111, 5-amino-8-(2,6-dimethyl-4-pyridyl)-7-phenyl-2-[3-(1-piperidyl)propyl]-[1,2,4]triazolo[4,3-c]pyrimidin-3-one] are over 3980 nM and 398 nM.
`Cc1cc(-c2c(-c3ccccc3)nc(N)n3c(=O)n(CC4CCCOC4)nc23)cc(C)n1` (single isomer, unassigned) [Example 2-81-iso-2, 5-amino-8-(2,6-dimethyl-4-pyridyl)-7-phenyl-2-(tetrahydropyran-3-ylmethyl)-[1,2,4]triazolo[4,3-c]pyrimidin-3-one]: the Ki in assay [3] was 126 nM; in assay [1], 1 nM.
For `Cc1cc(-c2c(-c3ccccc3)nc(N)n3c(=O)n(CC4CCCOC4)nc23)cc(CO)n1` (single isomer, unassigned) [Example 2-92-iso-1, 5-amino-8-[2-(hydroxymethyl)-6-methyl-4-pyridyl]-7-phenyl-2-(tetrahydropyran-3-ylmethyl)-[1,2,4]triazolo[4,3-c]pyrimidin-3-one], in that order: 251 nM and 2.51 nM.
